According to PubChem BioAssay AID1919014 (Molecular Pharmacology Branch, DTP, NCI, 2023):

System: NCI-H1341 complex spheroids, percent test/control
Assay: Anticancer human tumor NCI-H1341 cell line growth inhibition [AhR];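 also: spheroids exposed to agents for seven days before readout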
Conditions: for IC50: curve of first compound; for viability, T/C: stronger effect = lower value
In short: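 Complex tumor spheroids co-cultured with HUVEC and human MSC stroma; AhR antagonists tested in combination with standard-of-care and investigational agents. Top concentration at or near clinical Cmax (else 10 microM), half-log dilutions; growth expressed as percent test/control.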

[1] = second compound 0.1 µM, first compound 0.000949 µM
[2] = second compound 0.1 µM, first compound 0.003 µM
[3] = second compound 0.1 µM, first compound 0.00949 µM
[4] = second compound 0.1 µM, first compound 0.03 µM
[5] = second compound 0.1 µM, first compound 0.0949 µM
[6] = second compound 0.1 µM, first compound 0.3 µM
[7] = second compound 0.316 µM, first compound 0.000949 µM
[8] = second compound 0.316 µM, first compound 0.003 µM
[9] = second compound 0.316 µM, first compound 0.00949 µM
[10] = second compound 0.316 µM, first compound 0.03 µM
[11] = second compound 0.316 µM, first compound 0.0949 µM
[12] = second compound 0.316 µM, first compound 0.3 µM
[13] = second compound 1 µM, first compound 0.000949 µM
[14] = second compound 1 µM, first compound 0.003 µM
[15] = second compound 1 µM, first compound 0.00949 µM
[16] = second compound 1 µM, first compound 0.03 µM
[17] = second compound 1 µM, first compound 0.0949 µM
[18] = second compound 1 µM, first compound 0.3 µM
[19] = second compound 3.16 µM, first compound 0.000949 µM
[20] = second compound 3.16 µM, first compound 0.003 µM
[21] = second compound 3.16 µM, first compound 0.00949 µM
[22] = second compound 3.16 µM, first compound 0.03 µM
[23] = second compound 3.16 µM, first compound 0.0949 µM
[24] = second compound 3.16 µM, first compound 0.3 µM
[25] = second compound 10 µM, first compound 0.000949 µM
[26] = second compound 10 µM, first compound 0.003 µM
[27] = second compound 10 µM, first compound 0.00949 µM
[28] = second compound 10 µM, first compound 0.03 µM
[29] = second compound 10 µM, first compound 0.0949 µM
[30] = second compound 10 µM, first compound 0.3 µM

Row | SMILES | IC50 (second compound 0.1 µM) | IC50 (second compound 0.316 µM) | IC50 (second compound 1 µM) | IC50 (second compound 3.16 µM) | IC50 (second compound 10 µM) | viability, T/C [3] | viability, T/C [4] | viability, T/C [5] | viability, T/C [6] | viability, T/C [9] | viability, T/C [10] | viability, T/C [11] | viability, T/C [12] | viability, T/C [15] | viability, T/C [16] | viability, T/C [17] | viability, T/C [18] | viability, T/C [21] | viability, T/C [22] | viability, T/C [23] | also measured
1 | CC(C)CC(NC(=O)C(Cc1ccccc1)NC(=O)c1cnccn1)B(O)O (stereo not given) + CC(CO)NC(=O)c1cc(-c2ccc(Cl)cc2)nn(-c2cnn(C)c2)c1=O | 4.61 nM | 4.3 nM | 4.31 nM | 3.55 nM | 3.81 nM | 0.86% | 0.08% | 0.36% | 0.13% | 0.3% | 0.06% | 0.04% | 0.68% | 0.31% | 0.09% | 1.13% | 0.28% | 0.91% | 0.08% | 0.98% | viability, T/C [1]: 89.8%; viability, T/C [2]: 79.2%; viability, T/C [7]: 88.1%; viability, T/C [8]: 72.6%; viability, T/C [13]: 70.3%; viability, T/C [14]: 75%; viability, T/C [19]: 86.3%; viability, T/C [20]: 58.4%; viability, T/C [24]: 0.6%; viability, T/C [25]: 83.4%; viability, T/C [26]: 62.9%; viability, T/C [27]: 1.02%; viability, T/C [28]: 0.15%; viability, T/C [29]: 0.12%; viability, T/C [30]: 0.45%
2 | O=C(C=Cn1cnc(-c2cc(C(F)(F)F)cc(C(F)(F)F)c2)n1)NNc1cnccn1 + Cc1ccccc1N=Nc1ccc(NC(=O)c2ccnn2C)c(C)c1 | 51.3 nM | 49.7 nM | 53.6 nM | < 9.49 nM | < 9.49 nM | 85.4% | 63.4% | 35.2% | 12.9% | 69.5% | 59% | 38.3% | 15.2% | 67.7% | 66.7% | 34.5% | 15.4% | 47.9% | 40.7% | 30.6% | viability, T/C (second compound 0.1 µM, first compound 0.949 µM): 8.66%; viability, T/C (second compound 0.1 µM, first compound 3 µM): 7.84%; viability, T/C (second compound 0.316 µM, first compound 0.949 µM): 9.67%; viability, T/C (second compound 0.316 µM, first compound 3 µM): 6.9%; viability, T/C (second compound 1 µM, first compound 0.949 µM): 8.51%; viability, T/C (second compound 1 µM, first compound 3 µM): 8.16%; viability, T/C [24]: 13.2%; viability, T/C (second compound 3.16 µM, first compound 0.949 µM): 11.4%; viability, T/C (second compound 3.16 µM, first compound 3 µM): 6.99%; viability, T/C [27]: 40.7%; viability, T/C [28]: 35%; viability, T/C [29]: 24.2%; viability, T/C [30]: 15.6%; viability, T/C (second compound 10 µM, first compound 0.949 µM): 10.8%; viability, T/C (second compound 10 µM, first compound 3 µM): 6.32%
3 | CC(C)CC(NC(=O)C(Cc1ccccc1)NC(=O)c1cnccn1)B(O)O (stereo not given) + Cc1cncc(-c2nc(NCCc3c[nH]c4ccccc34)c3ncn(C(C)C)c3n2)c1 | 5.11 nM | 4.76 nM | 4 nM | 3.73 nM | < 0.949 nM | 3.87% | 0.1% | 0.05% | 0.16% | 2.53% | 0.14% | 0.06% | 0.12% | 2.45% | 0.11% | 0.05% | 0.5% | 1.23% | 0.06% | 0.08% | viability, T/C [1]: 98.4%; viability, T/C [2]: 89.7%; viability, T/C [7]: 80.5%; viability, T/C [8]: 83.1%; viability, T/C [13]: 83.4%; viability, T/C [14]: 65.8%; viability, T/C [19]: 56.4%; viability, T/C [20]: 66.4%; viability, T/C [24]: 0.14%; viability, T/C [25]: 28%; viability, T/C [26]: 58.4%; viability, T/C [27]: 0.22%; viability, T/C [28]: 0.14%; viability, T/C [29]: 0.15%; viability, T/C [30]: 0.17%
